Among the data in patent publication US20010046987A1, “Oxazolidinones having a sulfoximine functionality” (priority 1999, published 2001) are MIC and melting point values, retold here.

Converted amounts (≈) assume the structure as drawn. Bounds are passed on as bounds.

As usually defined, the melting point is the temperature, or range, at which the solid turns liquid.

For one series, the system named is Staphylococcus aureus. Briefly: MIC by agar dilution, SAUR 9213. Format: cell-based. Particulars: Staphylococcus aureus, strain SAUR 9213, read-out: Antibacterial Activity Minimum Inhibitory Concentration SAUR 9213. From the text:
(§1) The in vitro activity of compounds of this invention can be assessed by standard testing procedures such as the determination of minimum inhibitory concentration (MIC) by agar dilution as described in “Approved Standard.
(In general: In agar dilution, organisms are placed on agar that contains the substance at set levels.)

In series [1] the test system is Staphylococcus epidermidis. Briefly: MIC by agar dilution, SEPI 30593. It is filed as cell-based. Particulars: Staphylococcus epidermidis, strain SEPI 30593, read-out: Antibacterial Activity Minimum Inhibitory Concentration SEPI 30593.
Excerpt: as §1

For a further series, the system named is Enterococcus faecium. The series can be described thus: MIC by agar dilution, EFAE 12712. To be noted: Enterococcus faecium, strain EFAE 12712, read-out: Antibacterial Activity Minimum Inhibitory Concentration EFAE 12712. It is filed as cell-based.
Excerpt: as §1

For a further series, the system named is Streptococcus pneumoniae. The series can be described thus: MIC by agar dilution, SPNE 9912. Format: cell-based. Particulars: Streptococcus pneumoniae, strain SPNE 9912, read-out: Antibacterial Activity Minimum Inhibitory Concentration SPNE 9912.
Excerpt: as §1

The test system of a further series is Streptococcus pyogenes. The series can be described thus: MIC by agar dilution, SPYO 152. Format: cell-based. Particulars: Streptococcus pyogenes, strain SPYO 152, read-out: Antibacterial Activity Minimum Inhibitory Concentration SPYO 152.
Excerpt: as §1

The test system of another series is H. influenzae. Briefly: MIC by agar dilution, HINF 30063. It is filed as cell-based. To be noted: Haemophilus influenzae, strain HINF 30063, read-out: Antibacterial Activity Minimum Inhibitory Concentration HINF 30063.
Excerpt: as §1

A further series deals with Enterococcus faecalis. Briefly: MIC by agar dilution, EFAE 9217. Particulars: Enterococcus faecalis, strain EFAE 9217, read-out: Antibacterial Activity Minimum Inhibitory Concentration EFAE 9217. It is filed as cell-based.
Excerpt: as §1

The test system of the next series is Moraxella catarrhalis. Briefly: MIC by agar dilution, MCAT 30607. Format: cell-based. To be noted: Moraxella catarrhalis, strain MCAT 30607, read-out: Antibacterial Activity Minimum Inhibitory Concentration MCAT 30607.
Excerpt: as §1

`CCC(=S)NCC1CN(c2ccc(C3CC[S+2]([O-])([N-]Cc4ccccc4)CC3)c(F)c2)C(=O)O1` [Example 16, N-({(5S)-3-[3-Fluoro-4-[1-[(phenylmethyl)imino]-1-oxidohexahydro-1λ^4-thiopyran-4-yl]phenyl]-2-oxo-1,3-oxazolidin-5-yl}methyl)propanethioamide, Z-isomer] gave a melting point of 207 to 208 °C. For the same compound, in the series on Staphylococcus aureus, the MIC stood at 2 µg/mL (≈ 3.97 µM). Moreover, the MIC in [1] was 1 µg/mL (≈ 1.99 µM). Further, in the series on Enterococcus faecium, the MIC worked out at 1 µg/mL (≈ 1.99 µM). Besides, in the series on Streptococcus pneumoniae, the MIC was found to be 0.25 µg/mL (≈ 0.496 µM). Also, the MIC in the series on Streptococcus pyogenes was determined as 0.5 µg/mL (≈ 0.993 µM). Moreover, in the series on H. influenzae, the MIC was > 64 µg/mL. The MIC in the series on Enterococcus faecalis is 1 µg/mL (≈ 1.99 µM). The MIC with Moraxella catarrhalis worked out at 2 µg/mL (≈ 3.97 µM).

As to `CCC(=S)NCC1CN(c2ccc(C3CC[S+2]([O-])([N-]CCCc4ccccc4)CC3)c(F)c2)C(=O)O1` [Example 17, N-({(5S)-3-[3-Fluoro-4-[1-[(3-phenylpropyl)imino]-1-oxidohexahydro-1λ^4-thiopyran-4-yl]phenyl]-2-oxo-1,3-oxazolidin-5-yl}methyl)propanethioamide, Z-isomer], the melting point lay in the range of 165.5 to 167 °C. In addition, the MIC in the series with Staphylococcus aureus turned out to be 2 µg/mL (≈ 3.76 µM). Besides, the MIC in series [1] came to 2 µg/mL (≈ 3.76 µM). In addition, the MIC in the series with Enterococcus faecium amounted to 2 µg/mL (≈ 3.76 µM). Also, the MIC in the series with Streptococcus pneumoniae is 0.5 µg/mL (≈ 0.94 µM). Moreover, the MIC in the series with Streptococcus pyogenes worked out at 1 µg/mL (≈ 1.88 µM). Besides, in the series with H. influenzae, the MIC is > 64 µg/mL. Moreover, the MIC in the series on Enterococcus faecalis worked out at 1 µg/mL (≈ 1.88 µM). The MIC in the series on Moraxella catarrhalis turned out to be 2 µg/mL (≈ 3.76 µM).

Regarding `CCC(=S)NCC1CN(c2ccc(C3CC[S+2]([O-])([N-]C(=O)NC)CC3)c(F)c2)C(=O)O1` [Example 18, N-({(5S)-3-[3-Fluoro-4-(1-{[(methylamino)carbonyl]imino}-1-oxidohexahydro-1λ^4-thiopyran-4-yl)phenyl]-2-oxo-1,3-oxazolidin-5-yl}methyl)propanethioamide, Z-isomer], the melting point lay within 203 to 204 °C. Moreover, in the series on Staphylococcus aureus, the MIC was determined as 2 µg/mL (≈ 4.25 µM). For the same compound, the MIC in [1] turned out to be 1 µg/mL (≈ 2.12 µM). In the series with Enterococcus faecium, the MIC is 1 µg/mL (≈ 2.12 µM). Moreover, in the series with Streptococcus pneumoniae, the MIC was determined as 0.25 µg/mL (≈ 0.531 µM). Besides, the MIC in the series on Streptococcus pyogenes was found to be 0.5 µg/mL (≈ 1.06 µM). Moreover, the MIC with H. influenzae came out at 8 µg/mL (≈ 17 µM). For the same compound, the MIC in the series on Enterococcus faecalis was found to be 1 µg/mL (≈ 2.12 µM). The MIC in the series with Moraxella catarrhalis was determined as 4 µg/mL (≈ 8.5 µM).

For `CCC(=S)NCC1CN(c2ccc(C3CC[S+2]([O-])([N-]C(=O)Nc4ccc([N+](=O)[O-])cc4)CC3)c(F)c2)C(=O)O1` [Example 21, N-({(5S)-3-[3-Fluoro-4-(1-{[[(4-nitrophenyl)amino]carbonyl]imino}-1-oxidohexahydro-1λ^4-thiopyran-4-yl)phenyl]-2-oxo-1,3-oxazolidin-5-yl}methyl)propanethioamide, Z-isomer], the melting point lay in the range of 222 to 228 °C. Also, the MIC with Staphylococcus aureus turned out to be 0.5 µg/mL (≈ 0.866 µM). Besides, the MIC in series [1] was 0.25 µg/mL (≈ 0.433 µM). Besides, the MIC with Enterococcus faecium amounted to 0.25 µg/mL (≈ 0.433 µM). Moreover, the MIC in the series on Streptococcus pneumoniae was < 0.06 µg/mL. In addition, the MIC with Streptococcus pyogenes was 0.125 µg/mL (≈ 0.216 µM). In addition, the MIC in the series on H. influenzae was > 64 µg/mL. Also, in the series on Enterococcus faecalis, the MIC stood at 0.25 µg/mL (≈ 0.433 µM). Moreover, the MIC in the series with Moraxella catarrhalis was determined as 0.25 µg/mL (≈ 0.433 µM).

As to `CCC(=S)NC[C@H]1CN(c2ccc([C@H]3CC[S@+2]([O-])([N-]C(N)=O)CC3)c(F)c2)C(=O)O1` [Example 22, N-({(5S)-3-[3-Fluoro-4-[1-[(aminocarbonyl)imino]-1-oxidohexahydro-1λ^4-thiopyran-4-yl]phenyl]-2-oxo-1,3-oxazolidin-5-yl}methyl)propanethioamide, Z-isomer], the melting point was 236 to 238 °C (dec.). The MIC in the series with Staphylococcus aureus was 2 µg/mL (≈ 4.38 µM). In addition, the MIC in series [1] came to 0.05 µg/mL (≈ 0.11 µM). Besides, the MIC with Enterococcus faecium was 0.5 µg/mL (≈ 1.1 µM). Besides, in the series on Streptococcus pneumoniae, the MIC came to 0.125 µg/mL (≈ 0.274 µM). In addition, the MIC in the series with Streptococcus pyogenes is 0.5 µg/mL (≈ 1.1 µM). Moreover, the MIC in the series with H. influenzae was 4 µg/mL (≈ 8.76 µM). The MIC with Enterococcus faecalis is 0.5 µg/mL (≈ 1.1 µM). In the series on Moraxella catarrhalis, the MIC was determined as 2 µg/mL (≈ 4.38 µM).

Consider `CCC(=S)NC[C@H]1CN(c2ccc([C@H]3CC[S@+2]([O-])([N-]CC(N)=O)CC3)c(F)c2)C(=O)O1` [Example 23, N-({(5S)-3-[3-Fluoro-4-[1-[[(aminocarbonyl)methyl]imino]-1-oxidohexahydro-1λ^4-thiopyran-4-yl]phenyl]-2-oxo-1,3-oxazolidin-5-yl}methyl)propanethioamide, Z-isomer], for which the melting point was 221 to 222 °C. The MIC with Staphylococcus aureus is 2 µg/mL (≈ 4.25 µM). In series [1], the MIC came out at 2 µg/mL (≈ 4.25 µM). Also, the MIC in the series with Enterococcus faecium worked out at 1 µg/mL (≈ 2.12 µM). Besides, in the series on Streptococcus pneumoniae, the MIC is 0.25 µg/mL (≈ 0.531 µM). The MIC in the series with Streptococcus pyogenes amounted to 0.5 µg/mL (≈ 1.06 µM). Besides, the MIC in the series on H. influenzae amounted to 4 µg/mL (≈ 8.5 µM). Moreover, the MIC in the series on Enterococcus faecalis was 0.5 µg/mL (≈ 1.06 µM). In addition, the MIC in the series on Moraxella catarrhalis is 4 µg/mL (≈ 8.5 µM).

On to `C[N-][S+2]1([O-])CCC(c2ccc(N3CC(CNC(=S)C4CC4)OC3=O)cc2F)CC1` [Example 29, N-({(5S)-3-[3-Fluoro-4-[1-(methylimino)-1-oxidohexahydro-1λ^4-thiopyran-4-yl]phenyl]-2-oxo-1,3-oxazolidin-5-yl}methyl)cyclopropanecarbothioamide, Z-isomer], for which the melting point is 201 to 202 °C (dec.). Also, in the series with Staphylococcus aureus, the MIC came to 1 µg/mL (≈ 2.27 µM). Also, the MIC in series [1] is 0.5 µg/mL (≈ 1.14 µM). Further, the MIC in the series on Enterococcus faecium was found to be 1 µg/mL (≈ 2.27 µM). The MIC with Streptococcus pneumoniae was determined as 0.25 µg/mL (≈ 0.569 µM). Also, the MIC in the series with Streptococcus pyogenes was determined as 0.5 µg/mL (≈ 1.14 µM). In the series on H. influenzae, the MIC amounted to 4 µg/mL (≈ 9.1 µM). Further, the MIC in the series on Enterococcus faecalis is 0.5 µg/mL (≈ 1.14 µM). The MIC in the series on Moraxella catarrhalis came to 2 µg/mL (≈ 4.55 µM).
